Measured values from US20170166598A1, “HETEROARYL COMPOUNDS FOR KINASE INHIBITION” (ARIAD PHARMACEUTICALS, INC., priority 2014, published 2017).

How the values were obtained:
Format in all cases: cell-based
[1] = target: T1, human EGFR exon 20 insertion NPG (H773_V774insNPG) (Homo sapiens, UniProt P00533, INS772GNP); assay: Ba/F3-EGFR-Exon20-NPG cell anti-proliferative assay (CellTiter 96 MTS, 72 h); details: Ba/F3-EGFR-Exon20-NPG cells
T1 construct: expressed in transfected cells; host or cells: Ba/F3 (murine pro-B) cells transduced with lentivirus from pLVX-IRES puro
In short: (§1)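 Ba/F3 cells made IL-3-independent by lentiviral EGFR exon 20 NPG or ASV insertion were exposed 72 h at 37 °C to 4-fold dilutions of compound (top 10,000 nM). Viability read by MTS tetrazolium conversion, absorbance 490 nm after 2 h.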

[2] = target: T2, human EGFR E746-A750 deletion and T790M Mutation (Homo sapiens, UniProt P00533, DEL746-750/T790M); assay: Ba/F3-EGFR-Del/T790M cell anti-proliferative assay (CellTiter 96 MTS, 72 h); details: Ba/F3-EGFR-Del/T790M cells
T2 construct: expressed in transfected cells; host or cells: Ba/F3 (murine pro-B) cells transduced with lentivirus from pLVX-IRES puro
In short: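 Ba/F3 cells made IL-3-independent by lentiviral human EGFR E746-A750 del/T790M, puromycin-selected. Cells treated 72 h at 37 °C with compound, 4-fold dilutions from 10,000 nM top concentration. Viability read by MTS tetrazolium-to-formazan conversion, absorbance at 490 nm after 2 h with reagent.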

[3] = target: T3, human EGFR exon 20 insertion ASV (V769_D770insASV) (Homo sapiens, UniProt P00533, INS769ASV); assay: Ba/F3-EGFR-Exon20-ASV cell anti-proliferative assay (CellTiter 96 MTS, 72 h); details: Ba/F3-EGFR-Exon20-ASV cells
T3 construct: expressed in transfected cells; host or cells: Ba/F3 (murine pro-B) cells transduced with lentivirus from pLVX-IRES puro
In short: as §1

[4] = target: T4, Her2 exon 20 YVMA insertion (A775_G776ins YVMA) (Homo sapiens, UniProt P04626, INS775YVMA); assay: Ba/F3-Her2 Exon20 YVMA cell anti-proliferative assay (CellTiter 96 MTS, 72 h); details: Ba/F3-Her2 Exon20 YVMA cells
T4 construct: expressed in transfected cells; host or cells: Ba/F3 (murine pro-B) cells transduced with lentivirus from pLVX-IRES puro
In short: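 IL-3-independent Ba/F3 cells transduced with the YVMA insertion were treated with compound in 4-fold dilutions from 10,000 nM top. After 72 h at 37° C, viable cells were quantified by MTS tetrazolium conversion, with absorbance read at 490 nm after 2 h.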

T1 sequence (P00533 with tags, fused parts or gaps INS772GNP): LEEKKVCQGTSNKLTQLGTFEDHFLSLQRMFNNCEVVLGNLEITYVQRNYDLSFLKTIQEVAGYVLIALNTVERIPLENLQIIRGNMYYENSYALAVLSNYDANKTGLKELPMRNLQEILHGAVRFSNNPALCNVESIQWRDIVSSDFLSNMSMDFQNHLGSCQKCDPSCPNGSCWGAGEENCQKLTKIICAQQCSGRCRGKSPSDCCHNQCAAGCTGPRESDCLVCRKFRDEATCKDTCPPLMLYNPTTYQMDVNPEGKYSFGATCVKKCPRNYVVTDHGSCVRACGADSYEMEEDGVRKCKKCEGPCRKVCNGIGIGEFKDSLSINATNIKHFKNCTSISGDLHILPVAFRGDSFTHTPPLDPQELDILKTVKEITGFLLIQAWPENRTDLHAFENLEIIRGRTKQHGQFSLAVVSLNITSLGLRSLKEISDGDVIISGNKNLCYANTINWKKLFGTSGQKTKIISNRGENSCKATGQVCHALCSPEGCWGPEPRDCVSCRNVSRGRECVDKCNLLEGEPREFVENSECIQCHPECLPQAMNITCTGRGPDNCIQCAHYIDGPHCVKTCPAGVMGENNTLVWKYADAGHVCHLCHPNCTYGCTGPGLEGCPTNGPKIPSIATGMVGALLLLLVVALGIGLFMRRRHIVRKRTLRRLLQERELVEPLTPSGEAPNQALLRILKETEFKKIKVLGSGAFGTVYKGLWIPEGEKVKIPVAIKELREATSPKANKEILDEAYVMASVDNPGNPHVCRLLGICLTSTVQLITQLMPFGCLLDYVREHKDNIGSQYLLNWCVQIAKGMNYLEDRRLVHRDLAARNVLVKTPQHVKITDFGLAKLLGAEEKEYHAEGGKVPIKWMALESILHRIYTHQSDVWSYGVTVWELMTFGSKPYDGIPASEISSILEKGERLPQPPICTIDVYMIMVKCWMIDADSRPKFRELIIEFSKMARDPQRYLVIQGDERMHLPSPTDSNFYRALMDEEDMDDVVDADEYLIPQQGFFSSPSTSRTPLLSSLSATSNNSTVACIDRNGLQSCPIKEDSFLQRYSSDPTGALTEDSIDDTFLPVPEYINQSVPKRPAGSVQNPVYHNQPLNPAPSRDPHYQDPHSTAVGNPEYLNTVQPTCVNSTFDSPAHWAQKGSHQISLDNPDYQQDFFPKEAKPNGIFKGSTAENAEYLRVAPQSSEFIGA
T2 sequence (P00533 with tags, fused parts or gaps DEL746-750/T790M): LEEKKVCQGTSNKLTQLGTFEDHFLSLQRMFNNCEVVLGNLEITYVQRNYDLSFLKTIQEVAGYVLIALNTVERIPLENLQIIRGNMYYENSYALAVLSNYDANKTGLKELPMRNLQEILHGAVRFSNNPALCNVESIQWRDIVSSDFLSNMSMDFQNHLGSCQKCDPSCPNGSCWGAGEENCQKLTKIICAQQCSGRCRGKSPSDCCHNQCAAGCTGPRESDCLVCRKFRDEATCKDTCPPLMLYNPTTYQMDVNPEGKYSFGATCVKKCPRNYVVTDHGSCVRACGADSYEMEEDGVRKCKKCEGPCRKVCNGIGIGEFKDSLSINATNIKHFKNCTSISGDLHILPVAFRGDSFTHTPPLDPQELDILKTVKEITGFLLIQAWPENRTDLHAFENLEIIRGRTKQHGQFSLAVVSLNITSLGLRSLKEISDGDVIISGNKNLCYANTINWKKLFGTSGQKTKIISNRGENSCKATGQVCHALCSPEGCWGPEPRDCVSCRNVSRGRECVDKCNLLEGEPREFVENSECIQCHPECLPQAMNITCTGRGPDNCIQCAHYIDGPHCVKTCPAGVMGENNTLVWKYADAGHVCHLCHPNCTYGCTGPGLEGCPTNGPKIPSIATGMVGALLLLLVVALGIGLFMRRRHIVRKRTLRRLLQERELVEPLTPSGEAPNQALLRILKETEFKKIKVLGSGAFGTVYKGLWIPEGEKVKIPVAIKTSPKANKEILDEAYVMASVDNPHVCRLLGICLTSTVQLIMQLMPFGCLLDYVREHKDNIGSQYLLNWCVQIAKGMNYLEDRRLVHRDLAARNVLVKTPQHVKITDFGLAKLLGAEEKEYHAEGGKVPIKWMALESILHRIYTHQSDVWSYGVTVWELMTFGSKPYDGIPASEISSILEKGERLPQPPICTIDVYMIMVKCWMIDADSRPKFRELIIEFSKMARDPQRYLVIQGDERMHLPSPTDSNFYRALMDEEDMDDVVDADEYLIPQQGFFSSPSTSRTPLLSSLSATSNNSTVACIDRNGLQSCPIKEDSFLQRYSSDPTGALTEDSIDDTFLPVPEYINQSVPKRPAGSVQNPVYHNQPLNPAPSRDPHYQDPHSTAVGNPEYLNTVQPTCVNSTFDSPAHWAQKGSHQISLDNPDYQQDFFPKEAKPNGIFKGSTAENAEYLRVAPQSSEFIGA
T3 sequence (P00533 with tags, fused parts or gaps INS769ASV): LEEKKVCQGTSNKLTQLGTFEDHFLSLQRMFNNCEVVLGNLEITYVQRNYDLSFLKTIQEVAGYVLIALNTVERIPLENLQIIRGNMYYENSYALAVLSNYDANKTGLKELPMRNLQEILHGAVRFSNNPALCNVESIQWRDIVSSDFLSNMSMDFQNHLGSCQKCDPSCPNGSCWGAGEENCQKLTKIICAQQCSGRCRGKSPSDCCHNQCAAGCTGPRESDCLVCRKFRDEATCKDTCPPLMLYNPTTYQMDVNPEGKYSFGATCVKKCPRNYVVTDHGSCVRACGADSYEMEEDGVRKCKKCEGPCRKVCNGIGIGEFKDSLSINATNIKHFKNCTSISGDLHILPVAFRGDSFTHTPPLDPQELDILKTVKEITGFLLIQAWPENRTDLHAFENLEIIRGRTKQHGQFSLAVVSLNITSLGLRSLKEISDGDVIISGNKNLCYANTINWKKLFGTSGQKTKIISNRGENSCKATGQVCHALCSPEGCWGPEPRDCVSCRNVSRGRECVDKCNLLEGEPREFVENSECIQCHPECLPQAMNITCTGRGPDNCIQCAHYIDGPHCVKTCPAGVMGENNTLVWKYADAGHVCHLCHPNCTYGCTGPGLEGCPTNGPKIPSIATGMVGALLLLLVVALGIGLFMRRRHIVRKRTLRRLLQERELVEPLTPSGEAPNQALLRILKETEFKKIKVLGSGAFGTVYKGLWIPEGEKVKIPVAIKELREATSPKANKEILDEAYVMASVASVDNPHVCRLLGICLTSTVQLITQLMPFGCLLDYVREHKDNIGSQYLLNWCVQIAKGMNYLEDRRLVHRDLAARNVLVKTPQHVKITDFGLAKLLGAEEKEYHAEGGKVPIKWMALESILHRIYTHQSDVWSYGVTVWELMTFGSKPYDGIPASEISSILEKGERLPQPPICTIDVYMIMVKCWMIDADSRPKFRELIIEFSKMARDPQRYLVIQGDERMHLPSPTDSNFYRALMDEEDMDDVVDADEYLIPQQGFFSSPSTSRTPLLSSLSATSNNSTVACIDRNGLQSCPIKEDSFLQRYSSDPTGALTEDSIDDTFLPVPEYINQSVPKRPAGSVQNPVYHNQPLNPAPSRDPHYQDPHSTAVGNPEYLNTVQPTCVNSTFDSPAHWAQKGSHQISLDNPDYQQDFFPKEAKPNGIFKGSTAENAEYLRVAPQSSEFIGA
T4 sequence (P04626 with tags, fused parts or gaps INS775YVMA): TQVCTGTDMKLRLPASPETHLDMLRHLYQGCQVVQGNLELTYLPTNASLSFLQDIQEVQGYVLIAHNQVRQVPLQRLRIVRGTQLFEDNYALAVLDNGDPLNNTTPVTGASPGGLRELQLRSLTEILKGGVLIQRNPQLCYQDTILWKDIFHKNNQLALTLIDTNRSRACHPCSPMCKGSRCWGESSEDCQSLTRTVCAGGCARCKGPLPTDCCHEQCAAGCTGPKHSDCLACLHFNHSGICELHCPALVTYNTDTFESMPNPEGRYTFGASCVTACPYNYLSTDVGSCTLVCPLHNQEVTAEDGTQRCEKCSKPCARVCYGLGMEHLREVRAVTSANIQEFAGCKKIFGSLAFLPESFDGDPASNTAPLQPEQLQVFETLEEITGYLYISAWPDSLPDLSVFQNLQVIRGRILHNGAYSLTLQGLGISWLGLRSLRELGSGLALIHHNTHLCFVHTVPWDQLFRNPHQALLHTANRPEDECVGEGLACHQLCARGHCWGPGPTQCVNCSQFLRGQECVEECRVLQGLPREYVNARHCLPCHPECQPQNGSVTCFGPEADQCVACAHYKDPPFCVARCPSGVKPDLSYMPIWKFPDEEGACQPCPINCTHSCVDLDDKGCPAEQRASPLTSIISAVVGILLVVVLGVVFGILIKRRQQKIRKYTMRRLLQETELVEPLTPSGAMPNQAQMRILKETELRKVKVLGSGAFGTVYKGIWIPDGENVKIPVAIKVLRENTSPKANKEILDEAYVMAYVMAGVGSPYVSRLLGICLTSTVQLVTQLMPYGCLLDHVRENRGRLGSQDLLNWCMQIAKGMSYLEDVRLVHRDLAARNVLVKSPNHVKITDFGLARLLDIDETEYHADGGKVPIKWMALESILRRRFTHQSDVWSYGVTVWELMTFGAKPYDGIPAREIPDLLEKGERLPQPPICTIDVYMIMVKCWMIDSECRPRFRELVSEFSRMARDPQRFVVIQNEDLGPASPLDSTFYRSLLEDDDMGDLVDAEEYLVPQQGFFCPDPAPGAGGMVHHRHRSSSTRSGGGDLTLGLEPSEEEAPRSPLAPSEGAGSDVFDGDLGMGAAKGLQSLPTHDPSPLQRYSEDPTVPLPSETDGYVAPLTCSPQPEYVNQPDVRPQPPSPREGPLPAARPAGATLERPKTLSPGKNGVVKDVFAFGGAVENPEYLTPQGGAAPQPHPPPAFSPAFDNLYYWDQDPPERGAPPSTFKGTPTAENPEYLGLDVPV

Structure (SMILES) | IC50 [1] | IC50 [3] | IC50 [4] | EGFR exon 19 deletion and exon 20 T790M mutation IC50 [2]
C=CC(=O)Nc1cc(Nc2nccc(-c3c(N4CCN(C)C(=O)C4)n4c5c(cccc35)CCC4)n2)c(OC)cc1N(C)CCN(C)C [Example 94] | 100 to 500 nM | 100 to 500 nM | > 1000 nM | C (IC50 value for the indicated mutant between greater than about 500 to about 1 μM)
C=CC(=O)Nc1cc(Nc2ncc(C(=O)OC)c(-c3cn4c5c(cccc35)CCC4)n2)c(OC)cc1N(C)CC1CCCN1C (stereo not shown) [Example 89] | < 100 nM | < 100 nM | < 100 nM | A (IC50 value for the indicated mutant below about 100 nM)
C=CC(=O)Nc1cc(Nc2ncc(CC)c(-c3cn4c5c(cccc35)N(C)C(=O)C4)n2)c(OC)cc1N(C)CCN(C)C [Example 66, N-(2-((2-(dimethylamino)ethyl)(methyl)amino)-5-((5-ethyl-4-(1-methyl-2-oxo-2,3-dihydro-1H-pyrrolo[1,2,3-de]quinoxalin-6-yl)pyrimidin-2-yl)amino)-4-methoxyphenyl)acrylamide] | < 100 nM | < 100 nM | < 100 nM | A (IC50 value for the indicated mutant below about 100 nM)
C=CC(=O)Nc1cc(Nc2ncc(-c3ncco3)c(-c3cn4c5c(cccc35)CCC4)n2)c(OC)cc1N(C)CCN(C)C [Example 62, N-(5-((4-(5,6-dihydro-4H-pyrrolo[3,2,1-ij]quinolin-1-yl)-5-(oxazol-2-yl)pyrimidin-2-yl)amino)-2-((2-(dimethylamino)ethyl)(methyl)amino)-4-methoxyphenyl)acrylamide] | < 100 nM | < 100 nM | < 100 nM | A (IC50 value for the indicated mutant below about 100 nM)
C=CC(=O)Nc1cc(Nc2ncc(-c3cnn(C)c3C)c(-c3cn4c5c(cccc35)CCC4)n2)c(OC)cc1N(C)CCN(C)C [Example 102] | < 100 nM | < 100 nM | < 100 nM | A (IC50 value for the indicated mutant below about 100 nM)
C=CC(=O)Nc1cc(Nc2ncc(C#N)c(-c3cn4c5c(cccc35)N(C)CC4)n2)c(OC)cc1N(C)CCN(C)C [Example 56, N-(5-((5-cyano-4-(1-methyl-2,3-dihydro-1H-pyrrolo[1,2,3-de]quinoxalin-6-yl)pyrimidin-2-yl)amino)-2-((2-(dimethylamino)ethyl)-(methyl)amino)-4-methoxyphenyl)acrylamide] | 100 to 500 nM | 500 to 1000 nM | 500 to 1000 nM | A (IC50 value for the indicated mutant below about 100 nM)
C=CC(=O)Nc1cc(Nc2ncc(OC(F)F)c(-c3cn4c5c(cccc35)CCC4)n2)c(OC)cc1N(C)CCN(C)C [Example 64, N-(5-((5-(difluoromethoxy)-4-(5,6-dihydro-4H-pyrrolo[3,2,1-ij]quinolin-1-yl)pyrimidin-2-yl)amino)-2-((2-(dimethylamino)ethyl)-(methyl)amino)-4-methoxyphenyl)acrylamide] | < 100 nM | < 100 nM | 100 to 500 nM | A (IC50 value for the indicated mutant below about 100 nM)
C=CC(=O)Nc1cc(Nc2nccc(-c3c(-c4ncnn4C)n4c5c(cccc35)CCC4)n2)c(OC)cc1N(C)CCN(C)C [Example 110] | < 100 nM | 100 to 500 nM | > 1000 nM | A (IC50 value for the indicated mutant below about 100 nM)
C=CC(=O)Nc1cc(Nc2ncc(CCC(C)O)c(-c3cn4c5c(cccc35)CCC4)n2)c(OC)cc1N(C)CCN(C)C (stereo not shown) [Example 32, N-(5-((4-(5,6-dihydro-4H-pyrrolo[3,2,1-ij]quinolin-1-yl)-5-(3-hydroxybutyl)pyrimidin-2-yl)amino)-2-((2-(dimethylamino)ethyl)(methyl)amino)-4-methoxyphenyl)acrylamide] | < 100 nM | < 100 nM | 100 to 500 nM | A (IC50 value for the indicated mutant below about 100 nM)
C=CC(=O)Nc1cc(Nc2nccc(-c3c(N4CCC(F)C4)n4c5c(cccc35)CCC4)n2)c(OC)cc1N(C)CCN(C)C (stereo not shown) [Example 92] | < 100 nM | < 100 nM | 100 to 500 nM | A (IC50 value for the indicated mutant below about 100 nM)

Now from value to compound, other results behind:

IC50 [1] | IC50 [3] | IC50 [4] | Structure (SMILES) | EGFR exon 19 deletion and exon 20 T790M mutation IC50 [2]
< 100 nM | 100 to 500 nM | 100 to 500 nM | C=CC(=O)Nc1cc(Nc2ncc(CCC(=O)OC)c(-c3cn4c5c(cccc35)CCC4)n2)c(OC)cc1N(C)CCN(C)C [Example 39, methyl 3-(2-((5-acrylamido-4-((2-(dimethylamino)ethyl)(methyl)amino)-2-methoxyphenyl)amino)-4-(5,6-dihydro-4H-pyrrolo[3,2,1-ij]quinolin-1-yl)pyrimidin-5-yl)propanoate] | A (IC50 value for the indicated mutant below about 100 nM)
< 100 nM | < 100 nM | < 100 nM | C=CC(=O)Nc1cc(Nc2ncc(C(=O)OC)c(-c3nn4c5c(cccc35)OCC4)n2)c(OC)cc1N(C)CCN(C)C [Example 65, Methyl 2-((5-acrylamido-4-((2-(dimethylamino)ethyl)(methyl)amino)-2-methoxyphenyl)amino)-4-(2,3-dihydro-[1,4]oxazino[2,3,4-hi]indazol-6-yl)pyrimidine-5-carboxylate] | A (IC50 value for the indicated mutant below about 100 nM)
< 100 nM | < 100 nM | < 100 nM | C=CC(=O)Nc1cc(Nc2ncc(-c3nc(C)no3)c(-c3cn4c5c(cccc35)CCC4)n2)c(OC)cc1N(C)CCN(C)C [Example 86] | A (IC50 value for the indicated mutant below about 100 nM)
< 100 nM | < 100 nM | < 100 nM | C=CC(=O)Nc1cc(Nc2ncc(C(=O)OC)c(-c3cn4c5c(cccc35)CCC4)n2)c(OC)cc1N(C)CCN(C)C [Example 44, methyl 2-((5-acrylamido-4-((2-(dimethylamino)ethyl)(methyl)amino)-2-methoxyphenyl)amino)-4-(5,6-dihydro-4H-pyrrolo[3,2,1-ij]quinolin-1-yl)pyrimidin-5-carboxylate] | A (IC50 value for the indicated mutant below about 100 nM)
< 100 nM | 100 to 500 nM | 100 to 500 nM | C=CC(=O)Nc1cc(Nc2ncc(C(CC)OC)c(-c3cn4c5c(cccc35)CCC4)n2)c(OC)cc1N(C)CCN(C)C (stereo not shown) [Example 87] | A (IC50 value for the indicated mutant below about 100 nM)
< 100 nM | < 100 nM | < 100 nM | C=CC(=O)Nc1cc(Nc2ncc(-c3cc(C)nn3C)c(-c3cn4c5c(cccc35)CCC4)n2)c(OC)cc1N(C)CCN(C)C [Example 101] | A (IC50 value for the indicated mutant below about 100 nM)
